The results in this text go back to PubChem BioAssay (NCI).

Among the test systems are 786-0 renal; KM12 colon; ACHN renal; RPMI-8226 leukemia; K-562 leukemia; SK-MEL-28 melanoma; M14 melanoma; SK-MEL-5 melanoma; SNB-75 CNS; A498 renal.
What all share (test): NCI-60 cell line screen, 48 h

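Tested at 5 concentrations; 48 h exposure; 96-well plates; endpoints linearly interpolated, else capped at highest concentration. GI50: concentration for 50% inhibition of growth. TGI is the concentration that stops growth completely.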

For `Cn1ncc2cc3c(Nc4ccc(Cl)cc4)cccc3nc21`, the TGI was > 100 µM with 786-0 renal; 35.6 µM in the test on KM12 colon; 72.5 µM with ACHN renal; 34.2 µM in the test with RPMI-8226 leukemia; > 100 µM with K-562 leukemia; 35.8 µM with SK-MEL-28 melanoma. Further, the results for the TGI with M14 melanoma, in the test with SK-MEL-5 melanoma and in the test with SNB-75 CNS were 46.3 µM, 29.4 µM and > 100 µM, respectively.
On to `C1=CN2C[n+]3cccc(OCc4ccccc4)c3N=C2C(OCc2ccccc2)=C1`, for which the TGI in the test with 786-0 renal is > 100 µM; in the test with ACHN renal, > 100 µM; in the test on RPMI-8226 leukemia it was 9.26 µM; with A498 renal it was > 100 µM; in the test on K-562 leukemia, 42.4 µM; in the test on SK-MEL-28 melanoma it was 36 µM. Further, the TGI in the test on M14 melanoma was 56.4 µM; in the test with SK-MEL-5 melanoma, 21.2 µM; with SNB-75 CNS, > 100 µM.
Consider `O=S(=O)(c1ccc(NC(=S)N/N=C/c2ccccc2O)cc1)N1CCCCC1`, for which the TGI is 4.34 µM in the test with 786-0 renal; 12.9 µM in the test on KM12 colon; 10.2 µM in the test on ACHN renal; 8.17 µM in the test on RPMI-8226 leukemia; 27.9 µM in the test with A498 renal; > 52 µM in the test with SK-MEL-28 melanoma. Further, the TGI in the test with M14 melanoma was 2.78 µM; in the test with SK-MEL-5 melanoma, 0.176 µM; in the test with SNB-75 CNS it was > 65.2 µM.
`Nc1ccn(C=C=CCO)c(=O)n1`: the GI50 in the test on 786-0 renal, in the test with KM12 colon, in the test on ACHN renal, with K-562 leukemia, with M14 melanoma and in the test with SK-MEL-5 melanoma was > 1000 µM throughout. Besides, in the test on SNB-75 CNS, the GI50 is > 1000 µM. Further, the TGI in the test on 786-0 renal, in the test on KM12 colon, in the test with ACHN renal, in the test with RPMI-8226 leukemia, in the test on K-562 leukemia and in the test on M14 melanoma was > 1000 µM throughout. For the same compound, the TGI in the test with SK-MEL-5 melanoma and with SNB-75 CNS was > 1000 µM each time.
Consider `CC(C)=CC(=O)CC(=O)C(=O)Nc1ccc(C)c(C)c1`, for which the TGI in the test with 786-0 renal, in the test on KM12 colon, in the test with ACHN renal, in the test on RPMI-8226 leukemia, with K-562 leukemia and in the test with SK-MEL-28 melanoma was > 100 µM each time. The TGI in the test on M14 melanoma and in the test on SNB-75 CNS was > 100 µM in each case.
In the case of `Cn1nc(-c2ccccc2NC(=O)C(F)(F)F)c(=O)n(C)c1=S`, the TGI in the test on 786-0 renal was > 100 µM; in the test on KM12 colon it was 80.9 µM; in the test with ACHN renal, 77.5 µM; in the test with K-562 leukemia it was 66.8 µM; with SK-MEL-28 melanoma it was 30.1 µM; in the test on M14 melanoma, 45 µM. The values for the TGI in the test on SK-MEL-5 melanoma and in the test with SNB-75 CNS were > 100 µM and 59.4 µM, respectively.
Consider `CC1=C(C(=O)Nc2ccccc2)C(c2ccc3c(c2)OCO3)C(C(=O)Nc2ccccc2)=C(C)N1`, for which the TGI in the test with 786-0 renal is > 100 µM; in the test on KM12 colon it was > 100 µM; with ACHN renal it was > 100 µM; with RPMI-8226 leukemia, 79.4 µM; in the test on A498 renal, > 100 µM; with K-562 leukemia, 66 µM. The TGI with SK-MEL-28 melanoma, in the test with M14 melanoma and with SK-MEL-5 melanoma was > 100 µM throughout.
Regarding `COC(=O)Nc1nc2ccc(C(=O)c3ccc[nH]3)cc2[nH]1`, the TGI with 786-0 renal, in the test on KM12 colon, with ACHN renal, with RPMI-8226 leukemia, in the test on A498 renal and in the test with SK-MEL-28 melanoma was > 100 µM each time. For the same compound, the values for the TGI in the test on M14 melanoma and with SNB-75 CNS were > 26.9 µM and 1.69 µM, respectively.
Take `COc1cc2c(cc1OC)C(=O)C(Br)CC2` (stereo not drawn): the GI50 was 4.01 µM in the test on 786-0 renal; 5.77 µM in the test on KM12 colon; 1.86 µM in the test with ACHN renal; 11.3 µM in the test on A498 renal; 3.96 µM in the test on K-562 leukemia; 4.85 µM in the test with SK-MEL-28 melanoma. Further, the GI50 in the test with M14 melanoma is 2.72 µM; in the test with SK-MEL-5 melanoma, 1.7 µM; with SNB-75 CNS, 5.27 µM. Besides, the TGI is 13.4 µM with 786-0 renal; 19.3 µM in the test on KM12 colon; 3.7 µM in the test on ACHN renal; 23.6 µM with A498 renal; > 100 µM with K-562 leukemia; 16.3 µM in the test with SK-MEL-28 melanoma. For the same compound, the TGI was found to be 7.1 µM in the test on M14 melanoma, 3.19 µM in the test with SK-MEL-5 melanoma and 18.9 µM in the test on SNB-75 CNS.
As to `CCCCN(CCCC)C(=O)C(=O)CC(=O)c1ccc(Br)cc1`, the TGI in the test on 786-0 renal, in the test on KM12 colon, in the test with ACHN renal, in the test with RPMI-8226 leukemia, with A498 renal and in the test with K-562 leukemia was > 100 µM throughout. Moreover, the TGI in the test with M14 melanoma and in the test on SK-MEL-5 melanoma was > 100 µM each time.
For `COc1cc(C(=O)O)c([N+](=O)[O-])c(OC)c1OC`, the TGI in the test on 786-0 renal, in the test on KM12 colon, in the test on ACHN renal, in the test on RPMI-8226 leukemia, in the test on A498 renal and with SK-MEL-28 melanoma was > 100 µM throughout. The TGI in the test on M14 melanoma, in the test with SK-MEL-5 melanoma and in the test with SNB-75 CNS was > 100 µM in each case.
`COc1cccc(NC(=O)c2sc3nc4c(cc3c2N)CCCC4)c1`: the GI50 with 786-0 renal was 0.42 µM; in the test with KM12 colon, 0.414 µM; in the test with ACHN renal, 0.953 µM; in the test on RPMI-8226 leukemia, 0.396 µM; in the test with A498 renal, 0.349 µM; with SK-MEL-28 melanoma it was 0.905 µM. Also, the GI50 in the test on SK-MEL-5 melanoma is 0.303 µM; in the test on SNB-75 CNS it was 0.271 µM. The TGI was 19.2 µM in the test with 786-0 renal; > 100 µM in the test with KM12 colon; > 100 µM with ACHN renal; 78.3 µM in the test with RPMI-8226 leukemia; 14.2 µM with A498 renal; > 100 µM with SK-MEL-28 melanoma. Also, the TGI in the test on SK-MEL-5 melanoma worked out at 2.67 µM; with SNB-75 CNS, 2.77 µM.
For the compound `Cc1ccc(S(=O)(=O)N/N=C/C(Br)=C(/Br)C(=O)O)cc1`, the TGI amounted to 14.8 µM with 786-0 renal; 33.1 µM in the test with KM12 colon; 8.75 µM in the test on ACHN renal; 6.18 µM with RPMI-8226 leukemia; 32.3 µM in the test on A498 renal; 9.65 µM with SK-MEL-28 melanoma. Besides, the figures for the TGI with M14 melanoma, in the test on SK-MEL-5 melanoma and in the test with SNB-75 CNS were 18.2 µM, 25.8 µM and 41 µM, respectively.
In the case of `COc1cc(O)c(C(=O)/C=C/c2ccccc2)c(OC)c1`, the TGI in the test with 786-0 renal was found to be 21.6 µM; in the test on KM12 colon, 13.6 µM; in the test on ACHN renal, 20.8 µM; in the test with RPMI-8226 leukemia it was 10.3 µM; with A498 renal, 16.5 µM; in the test with SK-MEL-28 melanoma, 13.1 µM. The results for the TGI in the test on M14 melanoma and in the test with SK-MEL-5 melanoma were 84.1 µM and 24.2 µM, respectively.
Consider `CC12OC(C(=O)C13CC3)C1C(=O)c3ccccc3C(=O)C12` (stereo not drawn), for which the GI50 is 18.2 µM in the test on 786-0 renal; 19.9 µM in the test on KM12 colon; 36.8 µM with K-562 leukemia; 21.6 µM with SK-MEL-28 melanoma; 41 µM in the test on M14 melanoma; 77.5 µM in the test with SNB-75 CNS. In addition, the TGI is 37.6 µM in the test with 786-0 renal; 52 µM in the test with KM12 colon; > 100 µM in the test on K-562 leukemia; 62.1 µM in the test on SK-MEL-28 melanoma; > 100 µM in the test with M14 melanoma; > 100 µM with SNB-75 CNS.
Turning to `COc1cc2cc(Oc3ccc(NC(=O)Nc4cccc(C(F)(F)F)c4)cc3)c(C)nc2cc1OCCN1CCCCC1`, the GI50 in the test on 786-0 renal was 1.72 µM; in the test on KM12 colon it was 1.72 µM; with ACHN renal, 1.69 µM; with A498 renal, 1.45 µM; in the test with K-562 leukemia it was 0.802 µM; with SK-MEL-28 melanoma, 1.76 µM. For the same compound, the results for the GI50 in the test on M14 melanoma, in the test with SK-MEL-5 melanoma and with SNB-75 CNS were 1.79 µM, 1.71 µM and 1.15 µM, respectively. In addition, the TGI in the test on 786-0 renal came out at 3.21 µM; in the test with KM12 colon, 3.3 µM; with ACHN renal, 3.06 µM; in the test with A498 renal it was 2.9 µM; in the test on K-562 leukemia it was 3.11 µM; with SK-MEL-28 melanoma it was 3.14 µM. Further, the TGI in the test on M14 melanoma was 3.27 µM; in the test on SK-MEL-5 melanoma it was 3.16 µM; with SNB-75 CNS, 2.37 µM.
As for `COc1ccc(-c2oc3cc(O)c(OC)c(O)c3c(=O)c2OC2OC(CO)C(O)C(O)C2O)cc1` (stereo not drawn), the TGI in the test with 786-0 renal, in the test with KM12 colon, in the test on ACHN renal, in the test with RPMI-8226 leukemia, with K-562 leukemia and with SK-MEL-28 melanoma was > 100 µM each time. The TGI with M14 melanoma, in the test with SK-MEL-5 melanoma and with SNB-75 CNS was > 100 µM in each case.
As for `C/C(=N\N(C)C)c1sc(-n2nc(-c3ccccc3)cc2-c2ccccc2)nc1C`, the TGI in the test with 786-0 renal, in the test with KM12 colon, with ACHN renal, in the test with A498 renal, in the test on K-562 leukemia and in the test on SK-MEL-28 melanoma was > 100 µM each time. In addition, the TGI in the test on M14 melanoma was > 100 µM; in the test with SK-MEL-5 melanoma, > 100 µM; in the test on SNB-75 CNS, 81.1 µM.
Turning to `CC1=COC(=O)c2ccccc2N1`, the TGI in the test on 786-0 renal, with KM12 colon, in the test with ACHN renal, in the test on RPMI-8226 leukemia, in the test with K-562 leukemia and in the test on SK-MEL-28 melanoma was > 100 µM each time. Besides, the TGI in the test on M14 melanoma, in the test with SK-MEL-5 melanoma and in the test with SNB-75 CNS was > 100 µM in each case.
`COc1ccc(/C=C2/CCCC/C2=N/O)cc1`: the TGI in the test with 786-0 renal, with KM12 colon, in the test on ACHN renal, in the test on RPMI-8226 leukemia, with A498 renal and with SK-MEL-28 melanoma was > 100 µM each time. For the same compound, the TGI in the test with M14 melanoma and in the test with SNB-75 CNS was > 100 µM throughout.
